Laboratory results published in EP0226973A2, “4-Bis(2'-hydroxyethyl)amino-1-(3'-hydroxypropyl)amino-2-nitro-benzene, process for its preparation and means for dyeing hair” (Wella Aktiengesellschaft, priority 1985, dated 1987).
Values after ≈ are worked out from the molar mass of the structure shown. Like-named read-outs stand apart in the source and are kept apart here.

Tests used:
Solubility in water = type: physicochemical; details: read-out: Löslichkeit in Wasser
[1] = Toxicological properties (general statement)
Human-Lymphozyten = assay: Human lymphocyte mutagenicity test; type: cell-based; details: Human-Lymphozytentest
Ames mutagenicity test = type: cell-based; details: Mutagenitätstest nach Ames

| solubility (Solubility in water; ohne Zusatz von Lösungsvermittlern) [µg/mL] | solubility (Solubility in water) [µg/mL] | Structure (SMILES) | toxikologische Eigenschaften [1] | mutagene Wirkung (Human-Lymphozyten) | mutagene Wirkung (Ames mutagenicity test) |
| --- | --- | --- | --- | --- | --- |
| < 1500 |  | CCNc1ccc(N(CCO)CCO)cc1[N+](=O)[O-] [Farbstoff (III), 4-Bis(2′-hydroxyethyl)amino-l-ethylamino-2-nitro-benzol] |  |  |  |
|  | ~5000 (≈ 19.6 mM) | CNc1ccc(N(CCO)CCO)cc1[N+](=O)[O-] [Farbstoff (V), 4-Bis(2′-hydroxyethyl)amino-l-methylamino-2-nitro-benzols] | sehr unbefriedigend | im Gegensatz zu Farbstoff (V) | im Gegensatz zu Farbstoff (V) |
|  | ~20000 (≈ 66.8 mM) | O=[N+]([O-])c1cc(N(CCO)CCO)ccc1NCCCO [Farbstoff (I), 4-Bis(2′-hydroxyethyl)amino-l-(3′-hydroxypropyl)amino-2-nitro-benzol] |  | keine mutagene Wirkung | keine mutagene Wirkung |
